Tests used:
Rattus norvegicus [1] = experiment: Hypotensive activity in normotensive Wistar rat assessed as systolic blood pressure at 0.5 mg/kg, iv measured after 5 mins (reference value: 116 +/- 4.6 mmHg); type: functional
Rattus norvegicus [2] = experiment: Hypotensive activity in normotensive Wistar rat assessed as systolic blood pressure at 0.5 mg/kg, iv measured after 20 mins (reference value: 147.7 +/- 5.9 mmHg); type: functional
Rattus norvegicus [3] = experiment: Hypotensive activity in normotensive Wistar rat assessed as systolic blood pressure at 0.5 mg/kg, iv measured after 20 mins (reference value: 116 +/- 4.6 mmHg); type: functional
Rattus norvegicus [4] = experiment: Hypotensive activity in normotensive Wistar rat assessed as systolic blood pressure at 2.5 mg/kg, iv measured after 30 mins (reference value: 148.5 +/- 2.6 mmHg); type: functional
Rattus norvegicus [5] = experiment: Hypotensive activity in normotensive Wistar rat assessed as diastolic blood pressure at 2.5 mg/kg, iv measured after 30 mins (reference value: 116.2 +/- 1.2 mmHg); type: functional
Rattus norvegicus [6] = experiment: Hypotensive activity in normotensive Wistar rat assessed as reduction in systolic blood pressure at 1 mg/kg, iv measured after 30 to 60 mins relative to control; type: functional; set-up: scale not given: the % may be the effect or the level left
Rattus norvegicus [7] = experiment: Hypotensive activity in normotensive Wistar rat assessed as reduction in diastolic blood pressure at 1 mg/kg, iv measured after 30 to 60 mins relative to control; type: functional; set-up: scale not given: the % may be the effect or the level left
Rattus norvegicus [8] = experiment: Cardiotoxicity in Wistar rat assessed as effect on heart rate at 1 mg/kg, iv measured after 1 min (reference value: 320.6 +/- 8.1 bpm); type: toxicity, organism-based; settings: in vivo
Rattus norvegicus [9] = experiment: Cardiotoxicity in Wistar rat assessed as effect on QTC interval time at 1 mg/kg, iv measured after 1 min (reference value: 137.7 +/- 2 ms); type: toxicity, organism-based; settings: in vivo
Rattus norvegicus [10] = experiment: Cardiotoxicity in Wistar rat assessed as effect on PQ interval time at 1 mg/kg, iv measured after 5 mins (reference value: 56.8 +/- 1.8 ms); type: toxicity, organism-based; settings: in vivo
Rattus norvegicus [11] = experiment: Cardiotoxicity in Wistar rat assessed as effect on QTC interval time at 1 mg/kg, iv measured after 5 mins (reference value: 137.7 +/- 2 ms); type: toxicity, organism-based; settings: in vivo
Rattus norvegicus [12] = experiment: Cardiotoxicity in Wistar rat assessed as effect on heart rate at 1 mg/kg, iv measured after 15 mins (reference value: 320.6 +/- 8.1 bpm); type: toxicity, organism-based; settings: in vivo, 0.25 h

Cl.O=c1c2ccccc2oc2c(OCC(O)CN3CCN(c4ccccn4)CC3)cccc12 (racemic)
Activity (Rattus norvegicus [1]): 116.3 mmHg | Activity (Rattus norvegicus [2]): 143 mmHg | Activity (Rattus norvegicus [3]): 114 mmHg

COc1ccc(CCNCC(O)COc2cccc3c(=O)c4ccccc4oc23)cc1OC.Cl (racemic)
Activity (Rattus norvegicus [4]): 130.7 mmHg | Activity (Rattus norvegicus [5]): 97.7 mmHg

CC(C)(C)NCC(O)COc1cccc2c(=O)c3ccccc3oc12.Cl (racemic)
Activity (Rattus norvegicus [6]): 10% | Activity (Rattus norvegicus [7]): 10 - 13% | Activity (Rattus norvegicus [8]): 307.2 bpm | Time (Rattus norvegicus [9]): 134.5 ms | Time (Rattus norvegicus [10]): 58 ms | Time (Rattus norvegicus [11]): 132.2 ms | Activity (Rattus norvegicus [12]): 290.6 bpm

Source: ChEMBL document CHEMBL4118148, “Design, synthesis and cardiovascular evaluation of some aminoisopropanoloxy derivatives of xanthone” (Bioorg Med Chem, 2018)
